Assay results reported in ChEMBL document CHEMBL1128844, “The design, synthesis and evaluation of A,C,D-ring analogs of the fungal metabolite K-76 as complement inhibitors: a potential probe for the absolute stereochemistry at position 2” (1995).

Columns and labels:
Format in all cases: functional
[1] = species on record: Homo sapiens; test: Ability to inhibit human complement-mediated erythrocyte lysis by classical pathway
[2] = species on record: Homo sapiens; test: Ability to inhibit human complement-mediated erythrocyte lysis by alternate pathway
[3] = species on record: Homo sapiens; test: Ability to inhibit human complement-mediated erythrocyte lysis by classical pathway at 2000 uM concentration

`COc1ccc(C(=O)O)c2c1CC(C)(C1CC[C@](C)(O)C(O)C1)O2` (stereo not given in full) was tested, and the IH50 [1] was 1600 µM and the IH50 [2] was greater than 2550 µM.

Work on `C=C(Cc1c(OC)ccc(C(=O)O)c1O)C1CC[C@](C)(O)C(O)C1` (stereo not given in full) yielded an inhibition at 2000 µM [3] of 24%.

`C[C@@H]1CCC2C(C)(C)[C@H](O)[C@H](O)C[C@]2(C)[C@@]12Cc1c(O)cc(C(=O)[O-])c(C=O)c1O2.[Na+]` (stereo not given in full) was tested, and the IH50 [1] was 570 µM and the IH50 [2] was 850 µM.
